Data reported in US12708665B2, “Anti-IL-1β antibody therapy in arrhythmogenic cardiomyopathy (ACM)” (Beth Israel Deaconess Medical Center, Inc., priority 2019, dated 2026).

Tested on: Dsg2^mut/mut mice
Assay: Cytokine arrays, cytokine expression in hearts of Dsg2^mut/mut mice treated with Bay 11-7082
Type: in vivo
From the text: Quantitative data (mean±SEM; n=5) for expression of selected cytokines in hearts of vehicle-treated wildtype (WT) mice, Dsg2^mut/mut mice and Dsg2^mut/mut mice treated with Bay 11-7082. * P<0.05 compared to WT; †P<0.05 for treated vs. untreated Dsg2^mut/mut mice.
To characterize production of chemical mediators of the immune response in ACM, we used arrays to measure 111 different cytokines in the hearts of Dsg2^mut/mut mice and compared the amounts to those measured in the hearts of WT mice and Dsg2^mut/mut mice treated with Bay 11-7082. We observed substantial expression of multiple cytokines in the hearts of Dsg2^mut/mut mice. […] Powerful inflammatory mediators were expressed in Dsg2^mut/mut hearts including IL-1β (up by ~13-fold compared to WT hearts), IFNγ (~5-fold), IL-12 (~6-fold) and TNFα (~2-fold). […] Finally, there were increases in some molecules that fulfill anti-inflammatory roles such as IL-1Ra (up by ~4-fold).

[1] = cytokine expression level, mouse heart

Cc1ccc(S(=O)(=O)/C=C/C#N)cc1 [Bay11-7082]
LIX (CXCL5) level (ACM (Dsg2^mut/mut) mice treated with Bay 11-7082, result in words): markedly reduced
OPN expression (Dsg2^mut/mut mice treated with Bay 11-7082, result in words): reduced
Adiponectin, Dsg2^mut/mut (Bay11-7082) vs Dsg2^mut/mut [1]: <1
Adiponectin, Dsg2^mut/mut (Bay11-7082) vs WT [1]: <1
Amphiregulin, Dsg2^mut/mut (Bay11-7082) vs Dsg2^mut/mut [1]: <1
Amphiregulin, Dsg2^mut/mut (Bay11-7082) vs WT [1]: <1
Angiopoietin-1, Dsg2^mut/mut (Bay11-7082) vs Dsg2^mut/mut [1]: <1
Angiopoietin-1, Dsg2^mut/mut (Bay11-7082) vs WT [1]: <1
Angiopoietin-2, Dsg2^mut/mut (Bay11-7082) vs Dsg2^mut/mut [1]: 1-2
Angiopoietin-2, Dsg2^mut/mut (Bay11-7082) vs WT [1]: <1
Angiopoietin-like 3, Dsg2^mut/mut (Bay11-7082) vs Dsg2^mut/mut [1]: <1
Angiopoietin-like 3, Dsg2^mut/mut (Bay11-7082) vs WT [1]: <1
BAFF/BLyS/TNFSF13B, Dsg2^mut/mut (Bay11-7082) vs Dsg2^mut/mut [1]: <1
BAFF/BLyS/TNFSF13B, Dsg2^mut/mut (Bay11-7082) vs WT [1]: <1
C1qR1/CD93, Dsg2^mut/mut (Bay11-7082) vs Dsg2^mut/mut [1]: <1
C1qR1/CD93, Dsg2^mut/mut (Bay11-7082) vs WT [1]: <1
C-Reactive Protein/CRP, Dsg2^mut/mut (Bay11-7082) vs Dsg2^mut/mut [1]: <1
C-Reactive Protein/CRP, Dsg2^mut/mut (Bay11-7082) vs WT [1]: <1
CCL2/JE/MCP-1, Dsg2^mut/mut (Bay11-7082) vs Dsg2^mut/mut [1]: <1
CCL2/JE/MCP-1, Dsg2^mut/mut (Bay11-7082) vs WT [1]: <1
CCL3/CCL4/MIP-1a/B, Dsg2^mut/mut (Bay11-7082) vs Dsg2^mut/mut [1]: <1
CCL3/CCL4/MIP-1a/B, Dsg2^mut/mut (Bay11-7082) vs WT [1]: <1
CCL5/RANTES, Dsg2^mut/mut (Bay11-7082) vs Dsg2^mut/mut [1]: <1
CCL5/RANTES, Dsg2^mut/mut (Bay11-7082) vs WT [1]: <1
CCL6/C10, Dsg2^mut/mut (Bay11-7082) vs Dsg2^mut/mut [1]: <1
CCL6/C10, Dsg2^mut/mut (Bay11-7082) vs WT [1]: <1
CCL17/TARC, Dsg2^mut/mut (Bay11-7082) vs Dsg2^mut/mut [1]: <1
CCL17/TARC, Dsg2^mut/mut (Bay11-7082) vs WT [1]: <1
CCL19/MIP-3B, Dsg2^mut/mut (Bay11-7082) vs Dsg2^mut/mut [1]: <1
CCL19/MIP-3B, Dsg2^mut/mut (Bay11-7082) vs WT [1]: <1
CCL20/MIP-3a, Dsg2^mut/mut (Bay11-7082) vs Dsg2^mut/mut [1]: <1
CCL20/MIP-3a, Dsg2^mut/mut (Bay11-7082) vs WT [1]: <1
CCL21/6Ckine, Dsg2^mut/mut (Bay11-7082) vs Dsg2^mut/mut [1]: <1
CCL21/6Ckine, Dsg2^mut/mut (Bay11-7082) vs WT [1]: <1
CCL22/MDC, Dsg2^mut/mut (Bay11-7082) vs Dsg2^mut/mut [1]: <1
CCL22/MDC, Dsg2^mut/mut (Bay11-7082) vs WT [1]: <1
CD14, Dsg2^mut/mut (Bay11-7082) vs Dsg2^mut/mut [1]: 1-2
CD14, Dsg2^mut/mut (Bay11-7082) vs WT [1]: <1
CD40/TNFRSF5, Dsg2^mut/mut (Bay11-7082) vs Dsg2^mut/mut [1]: <1
CD40/TNFRSF5, Dsg2^mut/mut (Bay11-7082) vs WT [1]: <1
CD160, Dsg2^mut/mut (Bay11-7082) vs Dsg2^mut/mut [1]: <1
CD160, Dsg2^mut/mut (Bay11-7082) vs WT [1]: <1
CX3CL1/Fractalkine, Dsg2^mut/mut (Bay11-7082) vs Dsg2^mut/mut [1]: <1
CX3CL1/Fractalkine, Dsg2^mut/mut (Bay11-7082) vs WT [1]: <1
CXCL9/MIG, Dsg2^mut/mut (Bay11-7082) vs Dsg2^mut/mut [1]: <1
CXCL9/MIG, Dsg2^mut/mut (Bay11-7082) vs WT [1]: <1
CXCL13/BLC/BCA-1, Dsg2^mut/mut (Bay11-7082) vs Dsg2^mut/mut [1]: <1
CXCL13/BLC/BCA-1, Dsg2^mut/mut (Bay11-7082) vs WT [1]: 2-4
CXCL16, Dsg2^mut/mut (Bay11-7082) vs Dsg2^mut/mut [1]: <1
CXCL16, Dsg2^mut/mut (Bay11-7082) vs WT [1]: <1
Chemerin, Dsg2^mut/mut (Bay11-7082) vs Dsg2^mut/mut [1]: <1
Chemerin, Dsg2^mut/mut (Bay11-7082) vs WT [1]: <1
Chitinase 3-like 1, Dsg2^mut/mut (Bay11-7082) vs Dsg2^mut/mut [1]: <1
Chitinase 3-like 1, Dsg2^mut/mut (Bay11-7082) vs WT [1]: <1
Coagulation Factor III/Tissue Factor, Dsg2^mut/mut (Bay11-7082) vs Dsg2^mut/mut [1]: <1
Coagulation Factor III/Tissue Factor, Dsg2^mut/mut (Bay11-7082) vs WT [1]: <1
Complement Component C5/C5a, Dsg2^mut/mut (Bay11-7082) vs Dsg2^mut/mut [1]: <1
Complement Component C5/C5a, Dsg2^mut/mut (Bay11-7082) vs WT [1]: <1
Complement Factor D, Dsg2^mut/mut (Bay11-7082) vs Dsg2^mut/mut [1]: <1
Complement Factor D, Dsg2^mut/mut (Bay11-7082) vs WT [1]: <1
Cystatin C, Dsg2^mut/mut (Bay11-7082) vs Dsg2^mut/mut [1]: <1
Cystatin C, Dsg2^mut/mut (Bay11-7082) vs WT [1]: <1
DKK-1, Dsg2^mut/mut (Bay11-7082) vs Dsg2^mut/mut [1]: <1
DKK-1, Dsg2^mut/mut (Bay11-7082) vs WT [1]: <1
DPPIV/CD26, Dsg2^mut/mut (Bay11-7082) vs Dsg2^mut/mut [1]: <1
DPPIV/CD26, Dsg2^mut/mut (Bay11-7082) vs WT [1]: 1-2
E-Selectin/CD62E, Dsg2^mut/mut (Bay11-7082) vs Dsg2^mut/mut [1]: <1
E-Selectin/CD62E, Dsg2^mut/mut (Bay11-7082) vs WT [1]: <1
EGF, Dsg2^mut/mut (Bay11-7082) vs Dsg2^mut/mut [1]: <1
EGF, Dsg2^mut/mut (Bay11-7082) vs WT [1]: 1-2
Endoglin/CD105, Dsg2^mut/mut (Bay11-7082) vs Dsg2^mut/mut [1]: <1
Endoglin/CD105, Dsg2^mut/mut (Bay11-7082) vs WT [1]: <1
Endostatin, Dsg2^mut/mut (Bay11-7082) vs Dsg2^mut/mut [1]: <1
Endostatin, Dsg2^mut/mut (Bay11-7082) vs WT [1]: <1
Eotaxin (CCL11), Dsg2^mut/mut (Bay11-7082) vs Dsg2^mut/mut [1]: <1
Eotaxin (CCL11), Dsg2^mut/mut (Bay11-7082) vs WT [1]: <1
FGF acidic, Dsg2^mut/mut (Bay11-7082) vs Dsg2^mut/mut [1]: <1
FGF acidic, Dsg2^mut/mut (Bay11-7082) vs WT [1]: <1
FGF-21, Dsg2^mut/mut (Bay11-7082) vs Dsg2^mut/mut [1]: <1
FGF-21, Dsg2^mut/mut (Bay11-7082) vs WT [1]: <1
FLt-3 Ligand, Dsg2^mut/mut (Bay11-7082) vs Dsg2^mut/mut [1]: <1
FLt-3 Ligand, Dsg2^mut/mut (Bay11-7082) vs WT [1]: <1
Fetuin A/AHSG, Dsg2^mut/mut (Bay11-7082) vs Dsg2^mut/mut [1]: <1
Fetuin A/AHSG, Dsg2^mut/mut (Bay11-7082) vs WT [1]: <1
G-CSF, Dsg2^mut/mut (Bay11-7082) vs Dsg2^mut/mut [1]: <1
G-CSF, Dsg2^mut/mut (Bay11-7082) vs WT [1]: 1-2
GDF-15, Dsg2^mut/mut (Bay11-7082) vs Dsg2^mut/mut [1]: <1
GDF-15, Dsg2^mut/mut (Bay11-7082) vs WT [1]: <1
GM-CSF, Dsg2^mut/mut (Bay11-7082) vs Dsg2^mut/mut [1]: <1
GM-CSF, Dsg2^mut/mut (Bay11-7082) vs WT [1]: <1
Gas 6, Dsg2^mut/mut (Bay11-7082) vs Dsg2^mut/mut [1]: <1
Gas 6, Dsg2^mut/mut (Bay11-7082) vs WT [1]: <1
HGF, Dsg2^mut/mut (Bay11-7082) vs Dsg2^mut/mut [1]: <1
HGF, Dsg2^mut/mut (Bay11-7082) vs WT [1]: 4-6
I-TAC (CXCL11), Dsg2^mut/mut (Bay11-7082) vs Dsg2^mut/mut [1]: <1
I-TAC (CXCL11), Dsg2^mut/mut (Bay11-7082) vs WT [1]: <1
IFN-y, Dsg2^mut/mut (Bay11-7082) vs Dsg2^mut/mut [1]: <1
IFN-y, Dsg2^mut/mut (Bay11-7082) vs WT [1]: 1-2
IGFBP-1, Dsg2^mut/mut (Bay11-7082) vs Dsg2^mut/mut [1]: <1
IGFBP-1, Dsg2^mut/mut (Bay11-7082) vs WT [1]: 1-2
IGFBP-2, Dsg2^mut/mut (Bay11-7082) vs Dsg2^mut/mut [1]: <1
IGFBP-2, Dsg2^mut/mut (Bay11-7082) vs WT [1]: <1
IGFBP-3, Dsg2^mut/mut (Bay11-7082) vs Dsg2^mut/mut [1]: <1
IGFBP-3, Dsg2^mut/mut (Bay11-7082) vs WT [1]: <1
IGFBP-5, Dsg2^mut/mut (Bay11-7082) vs Dsg2^mut/mut [1]: <1
IGFBP-5, Dsg2^mut/mut (Bay11-7082) vs WT [1]: <1
IGFBP-6, Dsg2^mut/mut (Bay11-7082) vs Dsg2^mut/mut [1]: <1
IGFBP-6, Dsg2^mut/mut (Bay11-7082) vs WT [1]: <1
IL-1a (IL-1F1), Dsg2^mut/mut (Bay11-7082) vs Dsg2^mut/mut [1]: <1
IL-1a (IL-1F1), Dsg2^mut/mut (Bay11-7082) vs WT [1]: <1
IL-1ra (IL-1F3), Dsg2^mut/mut (Bay11-7082) vs Dsg2^mut/mut [1]: <1
IL-1ra (IL-1F3), Dsg2^mut/mut (Bay11-7082) vs WT [1]: 1-2
